Key:
CEM T-ALL cells = experiment: ssDNA (F7-26) and pH2A.X flow cytometry; type: cell-based, human
Description: Treated CEM T-ALL cells were fixed with ice-cold methanol:PBS (6:1 v/v). Staining with F7-26 ssDNA monoclonal antibody (mouse) was performed according to manufacturer’s instructions (EMD Millipore, #MAB3299) followed by secondary antibody IgM-PE. Subsequently, cells were stained with the phospho-Histone H2A.X (pS139 H2A.X) specific antibody conjugated to FITC (EMD Millipore, #05-636) and DAPI, and then analyzed by flow cytometry (a detailed description is available in the Supplementary Information).
(525→383). The peak areas for each drug (precursor→fragment ion transitions) at predetermined retention times were recorded using the software supplied by the instrument manufacturer (Agilent MassHunter).
Cell cycle histograms. Cells were plated at a density of 0.5 x 10^6 cells/mL in respective media or drug treated media. […]
Cell cycle kinetics and cell cycle progression by intracellular detection of DNA-incorporated 5-ethynyl-2-deoxyuridine (EdU). […] The total DNA content was assessed by staining the samples with FxCycle-Violet (Invitrogen, #F10347) at 1 µg/mL final concentration in PBS containing 2% FBS. […] Total DNA content was assessed by staining with FxCycle-Violet (Invitrogen) at 1 µg/mL final concentration in PBS containing 2% FBS. pH2A.X staining. […]
Measurement of ssDNA levels using the F7-26 monoclonal antibody. […] Cells were washed with PBS and stained with 100 µL of fluorescence-conjugated […]

ATR = tested on: ATR; set-up: method as in earlier work; settings: ref #35, Fokas et al., 2014; cited from earlier work

SMILES: NC(=S)N/N=C/c1ncccc1N [3-AP]
- increase of the percentage of ssDNA+ cells (CEM T-ALL cells; 0.5 h after treatment): more than two-fold
- increase of the percentage of ssDNA+ cells (CEM T-ALL cells; 4 h time point): greater than three-fold

SMILES: CNCc1ccc(-c2cc(-c3nc(-c4ccc(S(=O)(=O)C(C)C)cc4)cnc3N)on2)cc1 [VE-822]
- cellular selectivity for ATR compared to other members of the PIKK family (including ATM and DNA-PK) (ATR): > 100 fold

From publication PMC5556071, “ATR inhibition facilitates targeting of leukemia dependence on convergent nucleotide biosynthetic pathways” (Nature Communications, 2017)
